The values that follow come from ChEMBL document CHEMBL1287720, “Inhibition of human neuraminidase 3 (NEU3) by C9-triazole derivatives of 2,3-didehydro-N-acetyl-neuraminic acid” (Bioorg Med Chem Lett, 2010).

The structures appear in SMILES notation. A value given as a limit tells only on which side of the number the result lay.

For the first assay, the target named is T1, Sialidase-3 (Homo sapiens, UniProt Q9UQ49).
T1 sequence (Q9UQ49 whole entry): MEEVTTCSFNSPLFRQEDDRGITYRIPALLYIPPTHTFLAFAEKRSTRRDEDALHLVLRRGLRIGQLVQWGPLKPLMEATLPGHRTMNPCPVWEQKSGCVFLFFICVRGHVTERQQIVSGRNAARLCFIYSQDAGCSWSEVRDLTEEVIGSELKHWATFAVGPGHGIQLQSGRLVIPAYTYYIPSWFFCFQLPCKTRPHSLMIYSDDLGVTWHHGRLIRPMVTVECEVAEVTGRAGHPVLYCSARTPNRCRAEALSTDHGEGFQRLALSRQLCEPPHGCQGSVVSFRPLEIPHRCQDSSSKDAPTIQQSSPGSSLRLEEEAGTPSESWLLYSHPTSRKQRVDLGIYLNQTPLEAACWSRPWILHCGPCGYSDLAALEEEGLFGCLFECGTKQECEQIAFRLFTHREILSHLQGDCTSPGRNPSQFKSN
Description: Inhibition of human neuraminidase 3 assessed as inhibition of 4-methylumbelliferyl-alpha-D-N-acetylneuraminic acid hydrolysis.
A word on the IC50: it is the concentration that inhibits the measured activity by half. As for `CC(=O)N[C@H]1[C@H]([C@H](O)[C@H](O)CO)OC(C(=O)O)=C[C@@H]1O` [NEU5AC2EN], the IC50 turned out to be 43 µM.
In the case of `CC(=O)NC[C@@H](O)[C@@H](O)[C@@H]1OC(C(=O)O)=C[C@H](O)[C@H]1NC(C)=O`, the IC50 was greater than 1000 µM.
For `CC(=O)N[C@H]1[C@H]([C@H](O)[C@H](O)CNC(=O)c2ccccc2)OC(C(=O)O)=C[C@@H]1O`, the IC50 amounted to 320 µM.

Another assay concerns the target T1, Sialidase-3. Nature of the assay: Inhibition of human neuraminidase 3 assessed as inhibition of GM3 hydrolysis.
With `CCOC(=O)C1=C[C@@H](OC(CC)CC)[C@H](NC(C)=O)[C@@H](N)C1` [OSELTAMIVIR], the IC50 was greater than 10000 µM.

The next assay addresses T1, Sialidase-3.
Experiment: not given; call rule not given here
Regarding `CC(=O)N[C@H]1[C@H]([C@H](O)[C@H](O)Cn2cc(CCO)nn2)OC(C(=O)O)=C[C@@H]1O`, the half-maximal inhibitory concentration (IC50) amounted to 400 µM.
On the same count and under the same terms, under `O=C(Cn1cc(CO)nn1)N[C@H]1[C@H]([C@H](O)[C@H](O)CO)OC(C(=O)O)=C[C@@H]1O` stands greater than 500 µM; under `O=C(Cn1cc(-c2ccccc2)nn1)N[C@H]1[C@H]([C@H](O)[C@H](O)CO)OC(C(=O)O)=C[C@@H]1O`, greater than 500 µM; under `O=C(Cn1cc(CCCO)nn1)N[C@H]1[C@H]([C@H](O)[C@H](O)CO)OC(C(=O)O)=C[C@@H]1O`, greater than 500 µM.
The same measure, in the same setting: the value for `CC(=O)N[C@H]1[C@H]([C@H](O)[C@H](O)Cn2cc(C(C)(C)O)nn2)OC(C(=O)O)=C[C@@H]1O` was 300 µM; that for `CCOC(OCC)c1cn(CC(=O)N[C@H]2[C@H]([C@H](O)[C@H](O)CO)OC(C(=O)O)=C[C@@H]2O)nn1` was greater than 500 µM; that for `CC(=O)N[C@H]1[C@H]([C@H](O)[C@H](O)Cn2cc(CCCO)nn2)OC(C(=O)O)=C[C@@H]1O` was 500 µM.
On the same count and under the same terms, under `CC(=O)N[C@H]1[C@H]([C@H](O)[C@H](O)CO)OC(C(=O)O)=C[C@@H]1O` [NEU5AC2EN] stands 48 µM; under `CC(=O)N[C@H]1[C@H]([C@H](O)[C@H](O)CN=[N+]=[N-])OC(C(=O)O)=C[C@@H]1O`, 70 µM; under `CCCCCCc1cn(CC(=O)N[C@H]2[C@H]([C@H](O)[C@H](O)CO)OC(C(=O)O)=C[C@@H]2O)nn1`, greater than 500 µM.
As for `CC(=O)N[C@H]1[C@H]([C@H](O)[C@H](O)Cn2cc(COc3ccccc3)nn2)OC(C(=O)O)=C[C@@H]1O`, it took 45 µM to reach half-maximal inhibition (IC50).
`CCOc1cn(C[C@@H](O)[C@@H](O)[C@@H]2OC(C(=O)O)=C[C@H](O)[C@H]2NC(C)=O)nn1`: inhibition was half-maximal at 300 µM (IC50).
The molecule `CCOc1cn(CC(=O)N[C@H]2[C@H]([C@H](O)[C@H](O)CO)OC(C(=O)O)=C[C@@H]2O)nn1` displayed an IC50 greater than 500 µM.
Same read-out and setting: under `CCCCCCc1cn(C[C@@H](O)[C@@H](O)[C@@H]2OC(C(=O)O)=C[C@H](O)[C@H]2NC(C)=O)nn1` stands 23 µM; under `O=C(Cn1cc(COc2ccccc2)nn1)N[C@H]1[C@H]([C@H](O)[C@H](O)CO)OC(C(=O)O)=C[C@@H]1O`, greater than 500 µM; under `CC(C)(O)c1cn(CC(=O)N[C@H]2[C@H]([C@H](O)[C@H](O)CO)OC(C(=O)O)=C[C@@H]2O)nn1`, greater than 500 µM.
`CCOC(OCC)c1cn(C[C@@H](O)[C@@H](O)[C@@H]2OC(C(=O)O)=C[C@H](O)[C@H]2NC(C)=O)nn1` had an IC50 of 130 µM.
On the same count and under the same terms, the value for `[N-]=[N+]=NCC(=O)N[C@H]1[C@H]([C@H](O)[C@H](O)CO)OC(C(=O)O)=C[C@@H]1O` was 21 µM; that for `CC(=O)N[C@H]1[C@H]([C@H](O)[C@H](O)Cn2cc(-c3ccccc3)nn2)OC(C(=O)O)=C[C@@H]1O` was 20 µM; that for `O=C(Cn1cc(CCO)nn1)N[C@H]1[C@H]([C@H](O)[C@H](O)CO)OC(C(=O)O)=C[C@@H]1O` was greater than 500 µM.
The molecule `CC(=O)N[C@H]1[C@H]([C@H](O)[C@H](O)Cn2cc(CO)nn2)OC(C(=O)O)=C[C@@H]1O` displayed an IC50 of 300 µM.

The next assay deals with T1, Sialidase-3. Nature of the assay: Inhibition of human neuraminidase 3.
`CC(=O)N[C@H]1[C@H]([C@H](O)[C@H](O)CO)O[C@@](O)(C(=O)O)C[C@@H]1O`: the IC50 entry was “Not Active”.
